Test results: PubChem BioAssay AID1259407 (Chemical Carcinogenesis Research Information System (CCRIS), 2018)
The source made the active and inactive calls. No rule for the calls is given here.

Tested on: CCRIS mutagenicity, Ames/micronucleus/aberration tests
Assay: CCRIS mutagenicity studies

Measured: mutagenic call

O=C(O)c1ccccc1
inactive: Test System: AMES SALMONELLA TYPHIMURIUM, Strain/Indicator: TA97, Metabolic Activation: HAMSTER, LIVER, S-9, AROCLOR 1254 (10 OR 30%), Method: PREINCUBATION inactive; negative | Test System: AMES SALMONELLA TYPHIMURIUM, Strain/Indicator: TA97, Metabolic Activation: NONE, Method: PREINCUBATION inactive; negative | Test System: AMES SALMONELLA TYPHIMURIUM, Strain/Indicator: TA97, Metabolic Activation: RAT, LIVER, S-9, AROCLOR 1254, Method: PREINCUBATION inactive; negative | Test System: AMES SALMONELLA TYPHIMURIUM, Strain/Indicator: TA97, Metabolic Activation: RAT,LIVER, S-9, AROCLOR 1254 (10 OR 30%), Method: PREINCUBATION inactive; negative | Test System: AMES SALMONELLA TYPHIMURIUM, Strain/Indicator: TA97A, Metabolic Activation: NONE, Method: PREINCUBATION inactive; negative | Test System: AMES SALMONELLA TYPHIMURIUM, Strain/Indicator: TA97A, Metabolic Activation: RAT, LIVER, S-9, AROCLOR 1254, Method: PREINCUBATION inactive; negative | Test System: AMES SALMONELLA TYPHIMURIUM, Strain/Indicator: TA98, Metabolic Activation: GUINEA PIG, LIVER, S-9, PCB, Method: PREINCUBATION inactive; negative | Test System: AMES SALMONELLA TYPHIMURIUM, Strain/Indicator: TA98, Metabolic Activation: HAMSTER, LIVER, S-9, AROCLOR 1254 (10 OR 30%), Method: PREINCUBATION inactive; negative | Test System: AMES SALMONELLA TYPHIMURIUM, Strain/Indicator: TA98, Metabolic Activation: HAMSTER, LIVER, S-9, PCB, Method: PREINCUBATION inactive; negative | Test System: AMES SALMONELLA TYPHIMURIUM, Strain/Indicator: TA98, Metabolic Activation: MOUSE, LIVER, S-9, PCB, Method: PREINCUBATION inactive; negative | Test System: AMES SALMONELLA TYPHIMURIUM, Strain/Indicator: TA98, Metabolic Activation: NONE, Method: PREINCUBATION inactive; negative | Test System: AMES SALMONELLA TYPHIMURIUM, Strain/Indicator: TA98, Metabolic Activation: NONE, Method: STANDARD PLATE inactive; negative | Test System: AMES SALMONELLA TYPHIMURIUM, Strain/Indicator: TA98, Metabolic Activation: RAT, LIVER, S-9, AROCLOR 1254 (10%), Method: PREINCUBATION inactive; negative | Test System: AMES SALMONELLA TYPHIMURIUM, Strain/Indicator: TA98, Metabolic Activation: RAT, LIVER, S-9, AROCLOR 1254 (30%), Method: PREINCUBATION inactive; negative | Test System: AMES SALMONELLA TYPHIMURIUM, Strain/Indicator: TA98, Metabolic Activation: RAT, LIVER, S-9, AROCLOR 1254, Method: STANDARD PLATE inactive; negative | Test System: AMES SALMONELLA TYPHIMURIUM, Strain/Indicator: TA98, Metabolic Activation: RAT, LIVER, S-9, PCB, Method: PREINCUBATION inactive; negative | Test System: AMES SALMONELLA TYPHIMURIUM, Strain/Indicator: TA100, Metabolic Activation: GUINEA PIG, LIVER, S-9, PCB, Method: PREINCUBATION inactive; negative | Test System: AMES SALMONELLA TYPHIMURIUM, Strain/Indicator: TA100, Metabolic Activation: HAMSTER, LIVER, S-9, AROCLOR 1254 (10 OR 30%), Method: PREINCUBATION inactive; negative | Test System: AMES SALMONELLA TYPHIMURIUM, Strain/Indicator: TA100, Metabolic Activation: HAMSTER, LIVER, S-9, PCB, Method: PREINCUBATION inactive; negative | Test System: AMES SALMONELLA TYPHIMURIUM, Strain/Indicator: TA100, Metabolic Activation: MOUSE, LIVER, S-9, PCB, Method: PREINCUBATION inactive; negative | Test System: AMES SALMONELLA TYPHIMURIUM, Strain/Indicator: TA100, Metabolic Activation: NONE, Method: PREINCUBATION inactive; negative | Test System: AMES SALMONELLA TYPHIMURIUM, Strain/Indicator: TA100, Metabolic Activation: NONE, Method: STANDARD PLATE inactive; negative | Test System: AMES SALMONELLA TYPHIMURIUM, Strain/Indicator: TA100, Metabolic Activation: RAT, LIVER, S-9, AROCLOR 1254 (10 OR 30%), Method: PREINCUBATION inactive; negative | Test System: AMES SALMONELLA TYPHIMURIUM, Strain/Indicator: TA100, Metabolic Activation: RAT, LIVER, S-9, AROCLOR 1254, Method: STANDARD PLATE inactive; negative | Test System: AMES SALMONELLA TYPHIMURIUM, Strain/Indicator: TA100, Metabolic Activation: RAT, LIVER, S-9, PCB, Method: PREINCUBATION inactive; negative | Test System: AMES SALMONELLA TYPHIMURIUM, Strain/Indicator: TA102, Metabolic Activation: NONE, Method: PREINCUBATION inactive; negative | Test System: AMES SALMONELLA TYPHIMURIUM, Strain/Indicator: TA102, Metabolic Activation: RAT, LIVER, S-9, AROCLOR 1254, Method: PREINCUBATION inactive; negative | Test System: AMES SALMONELLA TYPHIMURIUM, Strain/Indicator: TA1535, Metabolic Activation: HAMSTER, LIVER, S-9, AROCLOR 1254 (10 OR 30%), Method: PREINCUBATION inactive; negative | Test System: AMES SALMONELLA TYPHIMURIUM, Strain/Indicator: TA1535, Metabolic Activation: NONE, Method: PREINCUBATION inactive; negative | Test System: AMES SALMONELLA TYPHIMURIUM, Strain/Indicator: TA1535, Metabolic Activation: NONE, Method: STANDARD PLATE inactive; negative | Test System: AMES SALMONELLA TYPHIMURIUM, Strain/Indicator: TA1535, Metabolic Activation: RAT, LIVER, S-9, AROCLOR 1254 (10%), Method: PREINCUBATION inactive; negative | Test System: AMES SALMONELLA TYPHIMURIUM, Strain/Indicator: TA1535, Metabolic Activation: RAT, LIVER, S-9, AROCLOR 1254 (30%), Method: PREINCUBATION inactive; negative | Test System: AMES SALMONELLA TYPHIMURIUM, Strain/Indicator: TA1535, Metabolic Activation: RAT, LIVER, S-9, AROCLOR 1254, Method: STANDARD PLATE inactive; negative | Test System: AMES SALMONELLA TYPHIMURIUM, Strain/Indicator: TA1537, Metabolic Activation: HAMSTER, LIVER, S-9, AROCLOR 1254 (10 OR 30%), Method: PREINCUBATION inactive; negative | Test System: AMES SALMONELLA TYPHIMURIUM, Strain/Indicator: TA1537, Metabolic Activation: NONE, Method: PREINCUBATION inactive; negative | Test System: AMES SALMONELLA TYPHIMURIUM, Strain/Indicator: TA1537, Metabolic Activation: NONE, Method: STANDARD PLATE inactive; negative | Test System: AMES SALMONELLA TYPHIMURIUM, Strain/Indicator: TA1537, Metabolic Activation: RAT, LIVER, S-9, AROCLOR 1254 (10%), Method: PREINCUBATION inactive; negative | Test System: AMES SALMONELLA TYPHIMURIUM, Strain/Indicator: TA1537, Metabolic Activation: RAT, LIVER, S-9, AROCLOR 1254 (30%), Method: PREINCUBATION inactive; negative | Test System: AMES SALMONELLA TYPHIMURIUM, Strain/Indicator: TA1537, Metabolic Activation: RAT, LIVER, S-9, AROCLOR 1254, Method: STANDARD PLATE inactive; negative | Test System: AMES SALMONELLA TYPHIMURIUM, Strain/Indicator: TA1538, Metabolic Activation: NONE, Method: STANDARD PLATE inactive; negative | Test System: AMES SALMONELLA TYPHIMURIUM, Strain/Indicator: TA1538, Metabolic Activation: RAT, LIVER, S-9, AROCLOR 1254, Method: STANDARD PLATE inactive; negative | Test System: Ames Salmonella typhimurium, Strain/Indicator: TA98, Metabolic Activation: None, Method: Direct plate incorporation inactive; negative | Test System: Ames Salmonella typhimurium, Strain/Indicator: TA98, Metabolic Activation: Rat, liver, S-9, Aroclor 1254, Method: Direct plate incorporation inactive; negative | Test System: Ames Salmonella typhimurium, Strain/Indicator: TA100, Metabolic Activation: None, Method: Direct plate incorporation inactive; negative | Test System: Ames Salmonella typhimurium, Strain/Indicator: TA100, Metabolic Activation: Rat, liver, S-9, Aroclor 1254, Method: Direct plate incorporation inactive; negative | Test System: E. COLI, Strain/Indicator: WP2, Metabolic Activation: NONE, Method: STANDARD PLATE inactive; negative | Test System: E. COLI, Strain/Indicator: WP2, Metabolic Activation: RAT, LIVER, S-9, AROCLOR 1254, Method: STANDARD PLATE inactive; negative
